Data reported in US20260034094A1, “COMPOSITIONS AND METHODS FOR INDUCING FERROPTOSIS” (Kojin Therapeutics, Inc., priority 2022, published 2026).
Several values for one entry are separate records, joined by “and”; a condition that tells them apart may be missing. Equal entries are not always repeated. Where two headings read alike, the source gives them in different places.

Assays:
human recombinant GCL = human recombinant GCL (Homo sapiens (Human), UniProt P48506); experiment: GCL enzyme profiling assay (ADP-Glo luminescence); assay type: biochemical
Outline: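 IC50 fitted by four-parameter logistic to luminescent ADP formation (ADP-Glo). Reaction at room temperature in HEPES pH 7.5 with 30 mM MgCl2, 0.2% F-127, 1% DMSO; 5 nM GCL and 0.6 mM ATP preincubated 1 h before adding 1 mM glutamate plus 1.2 mM α-aminobutyrate for 2 h.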

RKN cells = experiment: RKN cell profiling assay (cell viability, CellTiter-Glo); assay type: cell-based; settings: read-out: Cell Killing EC50
Outline: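 Viability read by CellTiter-Glo luminescence after 96 h compound exposure (0.5% DMSO final) of cells plated at 1,000/well in 10% FBS F-12 and allowed 24 h attachment. Four-parameter fits gave EC50; rescue arms used ferrostatin-1, 1.5 μM, present from seeding.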

[1] = human recombinant GCL 5 nM, 1 h preincubation with ATP, read-out: GCL IC50
[2] = human recombinant GCL, ADP-Glo, read-out: GCL IC50

human recombinant GCL, sequence (P48506 whole entry): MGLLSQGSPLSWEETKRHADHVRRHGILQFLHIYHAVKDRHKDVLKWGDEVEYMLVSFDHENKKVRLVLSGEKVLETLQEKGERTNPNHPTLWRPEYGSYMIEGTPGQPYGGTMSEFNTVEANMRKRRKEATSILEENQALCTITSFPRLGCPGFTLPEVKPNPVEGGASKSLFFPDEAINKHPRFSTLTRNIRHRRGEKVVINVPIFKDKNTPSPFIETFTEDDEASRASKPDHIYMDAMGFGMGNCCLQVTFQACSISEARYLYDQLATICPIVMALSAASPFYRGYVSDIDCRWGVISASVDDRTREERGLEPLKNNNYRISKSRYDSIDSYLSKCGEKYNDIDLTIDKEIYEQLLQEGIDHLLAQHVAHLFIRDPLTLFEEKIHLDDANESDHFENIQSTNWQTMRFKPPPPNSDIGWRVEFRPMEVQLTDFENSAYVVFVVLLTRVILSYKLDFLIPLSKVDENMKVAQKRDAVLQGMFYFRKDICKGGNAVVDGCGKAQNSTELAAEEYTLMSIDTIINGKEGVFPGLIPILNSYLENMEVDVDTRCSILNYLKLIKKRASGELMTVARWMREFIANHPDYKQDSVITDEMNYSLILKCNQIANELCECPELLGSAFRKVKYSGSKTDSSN

Row | Structure (SMILES) | IC50 (human recombinant GCL; [1]) | EC50 (RKN cells; 96 h, 96 h exposure) | IC50 (human recombinant GCL; human recombinant GCL 5 nM, 1 h preincubation with ATP, read-out: GCL IC50 (mM), individual values in parentheses) | IC50 (human recombinant GCL; [2]) | EC50 (RKN cells; cell viability)
1 | CC(C)(CCS(=N)(=O)CC[C@H](N)C(=O)O)C(N)=O (stereo partly drawn) [Compound 190] | 0.02 to 2 mM | ≥ 1000 µM | – | – | –
2 | CNC(=O)C1(CCS(=N)(=O)CC[C@H](N)C(=O)O)CCC1 (stereo partly drawn) [Compound 192] | 0.02 to 2 mM | ≥ 1000 µM | – | – | –
3 | CN(C)C(=O)C1(CCS(=N)(=O)CC[C@H](N)C(=O)O)CCC1 (stereo partly drawn) [Compound 193] | 0.02 to 2 mM | ≥ 1000 µM | – | – | –
4 | N=S(=O)(CC[C@H](N)C(=O)O)CCC1(C(=O)N2CCCC2)CCC1 (stereo partly drawn) [Compound 194] | 0.02 to 2 mM | ≥ 1000 µM | – | – | –
5 | N=S(=O)(CC[C@H](N)C(=O)O)CCC1(C(=O)Nc2ccccc2)CCC1 (stereo partly drawn) [Compound 195] | 0.02 to 2 mM | ≥ 1000 µM | – | – | –
6 | N=S(=O)(CC[C@H](N)C(=O)O)CCC1(C(=O)N2CCC2)CCC1 (stereo partly drawn) [Compound 196] | 0.02 to 2 mM | ≥ 1000 µM | – | – | –
7 | CCCCS(=O)(CC[C@H](N)C(=O)OC)=NC(C)=O (stereo partly drawn) [Compound 197, (2S)-methyl 4-(N-acetylbutylsulfonimidoyl)-2-aminobutanoate] | > 2 mM | ≥ 1000 µM | – | – | –
8 | CCCCS(=N)(=O)CC[C@H](NC(=O)OC)C(=O)OC (stereo partly drawn) [Compound 198, (2S)-methyl 4-(butylsulfonimidoyl)-2-((methoxycarbonyl)amino)butanoate] | > 2 mM | ≥ 1000 µM | – | – | –
9 | CCCCS(=N)(=O)CC[C@H](N)C#N (stereo partly drawn) [Compound 199, (2S)-2-amino-4-(butylsulfonimidoyl)butanenitrile] | > 2 mM | ≥ 1000 µM | – | – | –
10 | CC(C)(C)CCS1(=O)=NC(=O)[C@@H](N)CC1 (stereo partly drawn) [Compound 201, (1S,4R)-4-amino-1-(3,3-dimethylbutyl)-5,6-dihydro-1,2-thiazin-3 (4H)-one 1-oxide] | 0.02 to 2 mM | < 1000 µM | – | – | –
11 | N[C@H]1CCS(=O)(CCCC(F)(F)F)=NC1=O (stereo partly drawn) [Compound 202, (1S,4R)-4-amino-1-(4,4,4-trifluorobutyl)-5,6-dihydro-1,2-thiazin-3 (4H)-one 1-oxide] | 0.02 to 2 mM | < 1000 µM | – | – | –
12 | N=S(=O)(CCCC(F)(F)F)CC[C@H](N)c1ncon1 (stereo partly drawn) [Compound 203, (1S)-1-(1,2,4-oxadiazol-3-yl)-3-(4,4,4-trifluorobutylsulfonimidoyl)propan-1-amine] | > 2 mM | ≥ 1000 µM | – | – | –
13 | N=S(=O)(CCCC(F)(F)F)CC[C@H](N)c1ncno1 (stereo partly drawn) [Compound 204, (1S)-1-(1,2,4-oxadiazol-5-yl)-3-(4,4,4-trifluorobutylsulfonimidoyl)propan-1-amine] | > 2 mM | ≥ 1000 µM | – | – | –
14 | N=S(=O)(CCCC(F)(F)F)CC[C@H](N)c1ncn[nH]1 (stereo partly drawn) [Compound 205, (1S)-1-(1H-1,2,4-triazol-5-yl)-3-(4,4,4-trifluorobutylsulfonimidoyl)propan-1-amine] | ≤ 0.02 mM and 0.02 to 2 mM | ≥ 1000 µM | – | – | –
15 | N=S(=O)(CC[C@H](N)C(=O)O)CCC1(NC(N)=O)CCC1 (stereo partly drawn) [Compound 206, (2S)-2-amino-4-(2-(1-ureidocyclobutyl)ethylsulfonimidoyl)butanoic acid] | 0.02 to 2 mM | < 1000 µM | – | – | –
16 | CC(C)(CCS(=N)(=O)CC[C@H](N)C(=O)O)n1cc(-c2ccccc2)nn1 (stereo partly drawn) [Compound 207, (2S)-2-amino-4-(3-methyl-3-(4-phenyl-1H-1,2,3-triazol-1-yl)butylsulfonimidoyl)butanoic acid] | 0.02 to 2 mM | ≥ 1000 µM | – | – | –
17 | CC(C)(CCS(=N)(=O)CC[C@H](N)C(=O)O)n1ncc(-c2ccccc2)n1 (stereo partly drawn) [Compound 208, (2S)-2-amino-4-(3-methyl-3-(4-phenyl-2H-1,2,3-triazol-2-yl)butylsulfonimidoyl)butanoic acid] | ≤ 0.02 mM and 0.02 to 2 mM | < 1000 µM | 0.0204 mM and 0.02 mM | – | –
18 | N=S(=O)(CC[C@H](N)C(=O)O)CCC(O)(c1ccccc1Cl)C(F)(F)F (stereo partly drawn) [Compound 209, (2S)-2-amino-4-(3-(2-chlorophenyl)-4,4,4-trifluoro-3-hydroxybutylsulfonimidoyl)butanoic acid] | ≤ 0.02 mM | < 1000 µM | – | – | –
19 | N=S(=O)(CCC(N)C(F)(F)F)CC[C@H](N)C(=O)O (stereo partly drawn) [Compound 210, (2S)-2-amino-4-(3-amino-4,4,4-trifluorobutylsulfonimidoyl)butanoic acid] | 0.02 to 2 mM | < 1000 µM | – | – | –
20 | N=S(=O)(CCC(c1ccc(-c2ccccc2)cc1)C(F)(F)F)CC[C@H](N)C(=O)O (stereo partly drawn) [Compound 211, (2S)-4-(3-([1,1′-biphenyl]-4-yl)-4,4,4-trifluorobutylsulfonimidoyl)-2-aminobutanoic acid] | ≤ 0.02 mM | < 1000 µM | – | – | –

Row | Structure (SMILES) | IC50 (human recombinant GCL; [1]) | EC50 (RKN cells; 96 h, 96 h exposure) | IC50 (human recombinant GCL; human recombinant GCL 5 nM, 1 h preincubation with ATP, read-out: GCL IC50 (mM), individual values in parentheses) | IC50 (human recombinant GCL; [2]) | EC50 (RKN cells; cell viability)
21 | N=S(=O)(CCC(c1ccc(-c2ccccc2Cl)cc1)C(F)(F)F)CC[C@H](N)C(=O)O (stereo partly drawn) [Compound 212, (2S)-2-amino-4-(3-(2′-chloro-[1,1′-biphenyl]-4-yl)-4,4,4-trifluorobutylsulfonimidoyl)butanoic acid] | ≤ 0.02 mM | < 1000 µM | – | – | –
22 | N=S(=O)(CCC(c1ccc(CCC(F)(F)F)cc1)C(F)(F)F)CC[C@H](N)C(=O)O (stereo partly drawn) [Compound 213, (2S)-2-amino-4-(4,4,4-trifluoro-3-(4-(3,3,3-trifluoropropyl)phenyl)butylsulfonimidoyl)butanoic acid] | – | – | – | ≤ 0.02 mM | ≥ 1000 µM
23 | N#CC1CC=C(c2ccc(C(CCS(=N)(=O)CC[C@H](N)C(=O)O)C(F)(F)F)cc2)CC1 (stereo partly drawn) [Compound 214, (2S)-2-amino-4-(3-(4′-cyano-2′,3′,4′,5′-tetrahydro-[1,1′-biphenyl]-4-yl)-4,4,4-trifluorobutylsulfonimidoyl)butanoic acid] | – | – | – | ≤ 0.02 mM | ≥ 1000 µM
24 | N=S(=O)(CCC(c1ccc(C#Cc2ccccc2)cc1)C(F)(F)F)CC[C@H](N)C(=O)O (stereo partly drawn) [Compound 215, (2S)-2-amino-4-(4,4,4-trifluoro-3-(4-(phenylethynyl)phenyl)butylsulfonimidoyl)butanoic acid] | – | – | – | ≤ 0.02 mM | < 1000 µM
25 | N=S(=O)(CCC(c1ccc(S(=O)(=O)c2ccccc2)cc1)C(F)(F)F)CC[C@H](N)C(=O)O (stereo partly drawn) [Compound 216, (2S)-2-amino-4-(4,4,4-trifluoro-3-(4-(phenylsulfonyl)phenyl)butylsulfonimidoyl) butanoic acid] | – | – | – | 0.02 to 2 mM | ≥ 1000 µM
26 | N=S(=O)(CCC(c1ccc(-c2cc(F)cc(F)c2)cc1)C(F)(F)F)CC[C@H](N)C(=O)O (stereo partly drawn) [Compound 222] | – | – | – | ≤ 0.02 mM | < 1000 µM
27 | CCCc1ccc(C(CCS(=N)(=O)CC[C@H](N)C(=O)O)C(F)(F)F)cc1 (stereo partly drawn) [Compound 223] | – | – | – | ≤ 0.02 mM | < 1000 µM
28 | CCCCc1ccc(C(CCS(=N)(=O)CC[C@H](N)C(=O)O)C(F)(F)F)cc1 (stereo partly drawn) [Compound 224] | – | – | – | ≤ 0.02 mM | < 1000 µM
29 | N=S(=O)(CCC(c1ccc(-c2cc(F)ccc2O)cc1)C(F)(F)F)CC[C@H](N)C(=O)O (stereo partly drawn) [Compound 232] | – | – | – | ≤ 0.02 mM | < 1000 µM
30 | N=S(=O)(CCC(c1ccc(-c2ccc(OC(F)(F)F)cc2)cc1)C(F)(F)F)CC[C@H](N)C(=O)O (stereo partly drawn) [Compound 233] | – | – | – | ≤ 0.02 mM | < 1000 µM
31 | N=S(=O)(CCC(c1ccc(-c2cc(Cl)cc(Cl)c2)cc1)C(F)(F)F)CC[C@H](N)C(=O)O (stereo partly drawn) [Compound 234] | – | – | – | ≤ 0.02 mM | ≥ 1000 µM
32 | COc1ccc(Cl)cc1-c1ccc(C(CCS(=N)(=O)CC[C@H](N)C(=O)O)C(F)(F)F)cc1 (stereo partly drawn) [Compound 236] | – | – | – | ≤ 0.02 mM | < 1000 µM
33 | N=S(=O)(CCC(c1ccc(-c2ccc(Cl)c(C(F)(F)F)c2)cc1)C(F)(F)F)CC[C@H](N)C(=O)O (stereo partly drawn) [Compound 237] | – | – | – | ≤ 0.02 mM | < 1000 µM
34 | N=S(=O)(CCC(c1ccc(-c2cc(F)ccc2Cl)cc1)C(F)(F)F)CC[C@H](N)C(=O)O (stereo partly drawn) [Compound 238] | – | – | – | ≤ 0.02 mM | < 1000 µM
35 | N=S(=O)(CCC(c1ccc(-c2cccc(N)c2)cc1)C(F)(F)F)CC[C@H](N)C(=O)O (stereo partly drawn) [Compound 239] | – | – | – | ≤ 0.02 mM | ≥ 1000 µM
36 | N#Cc1cccc(-c2ccc(C(CCS(=N)(=O)CC[C@H](N)C(=O)O)C(F)(F)F)cc2)c1F (stereo partly drawn) [Compound 240] | – | – | – | ≤ 0.02 mM | ≥ 1000 µM
37 | COc1cncc(-c2ccc(C(CCS(=N)(=O)CC[C@H](N)C(=O)O)C(F)(F)F)cc2)c1 (stereo partly drawn) [Compound 242] | – | – | – | ≤ 0.02 mM | ≥ 1000 µM
38 | N#Cc1ccc(-c2ccc(C(CCS(=N)(=O)CC[C@H](N)C(=O)O)C(F)(F)F)cc2)cn1 (stereo partly drawn) [Compound 244] | – | – | – | ≤ 0.02 mM | ≥ 1000 µM
39 | N=S(=O)(CCC(c1ccc(-c2cncc(F)c2)cc1)C(F)(F)F)CC[C@H](N)C(=O)O (stereo partly drawn) [Compound 247] | – | – | – | ≤ 0.02 mM | ≥ 1000 µM
40 | N=S(=O)(CCC(c1ccc(-c2cncc(C(F)(F)F)c2)cc1)C(F)(F)F)CC[C@H](N)C(=O)O (stereo partly drawn) [Compound 250] | – | – | – | ≤ 0.02 mM | ≥ 1000 µM
